Columns and labels:
[1] = molecular target: T1, recombinant human MMP-13 (collagenase 3) (Homo sapiens, UniProt P45452); assay: Matrix metalloproteinase-13 inhibition assay; assay type: biochemical; conditions: at 1 mM concentrations
T1 construct: purchased Chondrex, Inc., Redmond, Wash; Cat. No. 3003
Method: Matrix Metalloproteinase-13 Inhibition Assay: The MMP-13 (collagenase 3) inhibition assay used a commercially available kit (Chondrex, Inc., Redmond, Wash., Cat. No. 3003) The recombinant human MMP-13 (collagenase 3) was activated by adding 5 μl of a 10 μg/ml solution of recombinant human MMP-13, 90 μl of sample dilution and reaction buffer (Solution B), and 5 μl of p-aminophenylmercuric acetate to each well of a microplate. The microplate was then incubated for 60 minutes at 35° C. Ten microliters of proteinase inhibitor was then added to each well to neutralize non-collagenolytic proteases in the sample solutions. Twenty five microliters of doxycycline, tetracycline, minocycline, COL-3, NPI-3469 (dissolved in buffer as previously described) and 25 μl of solution B were added to each well. Concentrations of the candidate inhibiting compounds in the initial mixture were prepared at 10^−7 to 10^−3 M using solution B. After the microplate was incubated at approximately 25° C. for 30 minutes, 10 μl of stop solution was added to each well and the fluorescence of each well was then determined using a fluorescent microplate reader set at 360 nm excitation/460nm emission. Data Analysis: The residual collagenolytic enzyme activity as a percentage of the control was calculated for each concentration of each inhibiting compound. All dilutions of each inhibiting compound were assayed in duplicate and a mean value was calculated for each well.

[2] = molecular target: T2, recombinant human cathepsin K (Homo sapiens, UniProt P43235); assay: Cathepsin K inhibition assay; assay type: biochemical
T2 sequence (P43235 115-329): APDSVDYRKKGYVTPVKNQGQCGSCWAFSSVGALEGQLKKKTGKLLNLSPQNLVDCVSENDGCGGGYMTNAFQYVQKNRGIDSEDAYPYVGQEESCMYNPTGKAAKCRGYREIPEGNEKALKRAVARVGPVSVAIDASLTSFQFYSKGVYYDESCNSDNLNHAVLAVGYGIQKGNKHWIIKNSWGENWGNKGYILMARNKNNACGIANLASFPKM
Method: Cathepsin K Inhibition Assay: The cathepsin K inhibition assay was modified from a previously described protocol (Votta et al., 1997). Doxycycline, tetracycline and minocycline were dissolved in 0.1 M Tris/0.15M NaCl buffer, pH 7.4. COL-3 was dissolved in 100% ethanol. NPI-3469 was dissolved in dimethylsulphoxide. Ten microliters of doxycycline, tetracycline, minocycline, COL-3, and NPI-3469 were dissolved in buffer and an equal volume of 0.125 μM rh-human cathepsin K standard dissolved in 100 mM sodium acetate buffer, pH 5.5 were mixed in a 96-well microplate and incubated at approximately 25° C. (room temperature) for 15 minutes. Concentrations of the candidate inhibiting compound in the initial mixture were prepared at 10^-7 to 10^-3M. Then 180 μl of an MCA substrate buffer containing 100 mM sodium acetate buffer pH 5.5, 2.5 mM dithiothreitol, 2.5 mM EDTA, and 5 μ[…] substrate (Peptides International, Louisville, KY) was added to the mixture. The microplate was incubated for 60 minutes at approximately 25° C. The fluorescence of each well was then determined using a fluorescent microplate reader set at 360 nm excitation/460 nm emission. Data Analysis: The residual collagenolytic enzyme activity as a percentage of the control was calculated for each concentration of each inhibiting compound. All dilutions of each inhibiting compound were assayed in duplicate and a mean value was calculated for each well.

[3] = Pharmacokinetic study of oral NPI 3469 in the dog; assay type: in vivo; conditions: 4 beagles, single oral dose 1 mg/kg
Method: Pharmacokinetics of oral NPI 3469 (NAEJA Pharmaceuticals, Edmonton, Alberta, Canada) in the dog. We have conducted a pharmokinetic study in 4 beagles using a single oral dose of NPI 3469 given at 1 mg/kg and pharmacokinetic parameters have been determined.

Row | inhibition of matrix metalloproteinase-13 [1] [%] | inhibition of matrix metalloproteinase-13 (in words) [1] | inhibition of cathepsin K ([2]; at 1 μm) [%] | inhibition of cathepsin K ([2]; at 10 μm) [%] | SMILES | adverse effects during the treatment period [3]
1 | 85 |  |  |  | CN(C)c1ccc(O)c2c1C[C@H]1C[C@H]3[C@H](N(C)C)C(O)=C(C(N)=O)C(=O)[C@@]3(O)C(O)=C1C2=O [minocycline] | 
2 |  | did not inhibit |  |  | C[C@H]1c2cccc(O)c2C(=O)C2=C(O)[C@]3(O)C(=O)C(C(N)=O)=C(O)[C@@H](N(C)C)[C@@H]3[C@@H](O)[C@@H]21 [doxycycline] | 

More lines, now with the values behind:

Row | SMILES | inhibition of matrix metalloproteinase-13 [1] [%] | inhibition of matrix metalloproteinase-13 (in words) [1] | inhibition of cathepsin K ([2]; at 1 μm) [%] | inhibition of cathepsin K ([2]; at 10 μm) [%] | adverse effects during the treatment period [3]
3 | CN(C)[C@@H]1C(O)=C(C(N)=O)C(=O)[C@@]2(O)C(O)=C3C(=O)c4c(O)cccc4[C@@](C)(O)[C@H]3C[C@@H]12 [tetracycline] | 49 |  |  |  | 
4 | NC(=O)C1=C(O)CC2CC3Cc4cccc(O)c4C(=O)C3=C(O)C2(O)C1=O (stereo not shown) [COL-3, 4-dedimethylaminosancycline] | 57 |  | 25 | 56 | 
5 | CC(C)C[C@H](NC(=O)OCc1ccccc1)C(=O)NC1=CNC2(CCCC2)NC1=O [NPI-3469, 5-(carbobenzoxy-L-leucyl)amino-2,2-tetramethylene-2,3-dihydro-1H-pyrimidin-4-one] |  | did not inhibit | 47 | 75 | No adverse effects

Reference: patent US8012950B2, “Method to diagnose and treat degenerative joint disease” (Wisconsin Alumni Research Foundation, priority 2003, dated 2011)
